Data taken from the CATMoS acute toxicity set (Mansouri et al. 2021).

Experiment: GHS categories as the set defines them, by LD50: 1 up to 5, 2 up to 50, 3 up to 300, 4 up to 2000, 5 above 2000 mg/kg
Conditions: rat; in vivo; po

Row | Structure (SMILES) | GHS category
1 | CC(C)(C)CC(C)(C)c1ccc(O)c(-n2nc3ccccc3n2)c1 | 5
2 | CCCCCCCC/C=C\CCCCCCCC(=O)OCC(C)(C)COC(=O)CCCCCCC/C=C\CCCCCCCC | 5
3 | CCO[Si](CN(CC)CC)(OCC)OCC | 5
4 | CCCCCCOC(=O)C(C)CC (stereo not drawn) | 5
5 | CCCCn1cc2c3c(cccc31)C1=C[C@@H](CO)CN(C)[C@@H]1C2 | 4
6 | COC(=O)c1ccc2c(C3CCCC3)cn(C)c2c1 | 5
7 | COC(C)CCO (stereo not drawn) | 5
8 | CCCCCC(O)CCO (stereo not drawn) | 5
9 | CC1(C)S[C@@H]2[C@H](N3C(=O)C(c4ccccc4)NC3(C)C)C(=O)N2[C@H]1C(=O)O (stereo partly drawn) | 5
10 | C=CC(=O)OCCCCOc1ccc(C(=O)Oc2ccc(OC(=O)c3ccc(OCCCCOC(=O)C=C)cc3)c(C)c2)cc1 | 5
11 | CC[C@H]1CO[C@@](Cn2ccnc2)(c2cc3cc(Cl)cc(Cl)c3o2)O1 | 4
12 | CCCCCCCCCC(=O)Nc1ccc(Cc2ccccn2)c([N+](=O)[O-])c1 | 3
13 | Nc1ccc2oc(=O)[nH]c2c1 | 4
14 | CCCCCCCCOC(=O)C(C)C | 5
15 | CC(C)(c1ccc(OCC2CO2)cc1)c1ccc(OCC2CO2)cc1 (stereo not drawn) | 4
16 | CC(COc1ccc(Oc2ccccc2)cc1)Oc1ccccn1 (stereo not drawn) | 5
17 | C[N+](C)(C)CC(O)CC(=O)[O-] (stereo not drawn) | 5
18 | Cc1cc(C(F)(C(F)(F)F)C(F)(F)F)ccc1NC(=O)c1cccc(I)c1C(=O)NC(C)(C)CS(C)(=O)=O | 5
19 | CN[C@@H]1[C@@H](O)[C@@H](O[C@@H]2[C@@H](O)[C@H](O[C@H]3O[C@H](CN)[C@@H](O)[C@H](O)[C@H]3O)[C@@H](N)C[C@H]2NC(=O)C(O)CN)OC[C@]1(C)O (stereo partly drawn) | 5
20 | Cc1ccc(C(=O)OCCCl)cc1N=Nc1c(O)c(C(=O)Nc2cc(C)c(NC(=O)c3cc4ccccc4c(N=Nc4cc(C(=O)OCCCl)ccc4C)c3O)cc2C)cc2ccccc12 | 5
21 | CC=CCC1=C(C)CCC1 | 5
22 | C[S+](C)CC[C@@H](N)C(=O)O (racemic) | 5
23 | C=CCOc1c(Br)cc(C(C)(C)c2cc(Br)c(OCC=C)c(Br)c2)cc1Br | 5

Row | Structure (SMILES) | GHS category
24 | CCCCC/C=C\C/C=C\CCCCCCCC(=O)NC(C)c1ccccc1 (stereo not drawn) | 5
25 | CCCCCCCCCCCCCCCC | 5
26 | Nc1cnn(CCO)c1N | 5
27 | CCCC(=O)NC(C)C(=O)O (stereo not drawn) | 5
28 | C=CC(=O)OCCCOc1ccc(C(=O)Oc2ccc(OC(=O)c3ccc(OCCCOC(=O)C=C)cc3)c(C)c2)cc1 | 5
29 | CC(C)N1C2CCC1CC(=O)C2 | 3
30 | CCOC(=O)CCN(C(=O)c1ccc2c(c1)nc(CCl)n2C)c1ccccn1 | 4
31 | O=C1CN=C(c2ccccc2Cl)c2cc([N+](=O)[O-])ccc2N1 | 5
32 | CCN(CCO)N=O | 5
33 | O=C(c1ccc(Cl)cc1)c1ccc2[nH]c(=O)oc2c1 | 5
34 | CC/C=C/C=C\CCCCCCCCOC(C)=O | 4
35 | CN(CCOP(=O)(O)O)C(=N)N | 5
36 | CC=CCCC1CCCC(=O)O1 (stereo not drawn) | 5
37 | CC1(C)Oc2cc(C(=O)c3ccc(Cl)cc3)ccc2NC1=O | 5
38 | OCCOc1ccc(OCCO)cc1 | 5
39 | Cc1ccc2oc(C3(Cn4ccnc4)OCCO3)cc2c1 | 4
40 | CCCCCCCCCCCCCCCCCCSSCCCCCCCCCCCCCCCCCC | 5
41 | O=S(=O)(c1ccc(Cl)cc1)c1ccc(Cl)cc1 | 5
42 | CCC1(C2=CCCCCC2)C(=O)NC(=O)NC1=O | 5
43 | O=S(=O)(O)c1ccccc1Nc1ccc(C(=C2C=CC(=Nc3ccccc3)C=C2)c2ccc(Nc3ccccc3)cc2)cc1 | 5
44 | Cc1ccc2c(-c3ccc(F)cc3)nc(=O)n(C(C)C)c2c1 | 5
45 | CC(C(=O)C(N)=O)c1ccc(N2Cc3ccccc3C2=O)cc1 (stereo not drawn) | 5
46 | Cc1cc(C)c(C(=O)P(=O)(C(=O)c2c(C)cc(C)cc2C)c2ccccc2)c(C)c1 | 5

Row | Structure (SMILES) | GHS category
47 | Oc1ccc(OCc2ccccc2)cc1 | 5
48 | Nc1cc(Cl)c(Cl)cc1S(=O)(=O)O | 5
49 | CCCCCCCCCCCCCCCCCC(=O)OC(CO)COC(=O)CCCCCCCCCCCCCCC (stereo not drawn) | 5
50 | CC(=O)NC1CCc2nc(N)sc2C1 (stereo not drawn) | 5
51 | C=CC(=O)OCCOCC(CC)(COCCOC(=O)C=C)COCCOC(=O)C=C | 5
52 | CC/C=C\CCOC(=O)C/C=C\CC | 5
53 | CN(CCCN1c2ccccc2CCc2ccccc21)CC(=O)c1ccc(Cl)cc1 | 4
54 | COc1ccc(CCN(C(=O)CCCSc2nnnn2C)C2CCCCC2)cc1OC | 4
55 | CN(SN(C)C(=O)Oc1ccc(C(C)(C)c2ccc(OC(=O)N(C)SN(C)C(=O)ON=C3CSCCS3)cc2)cc1)C(=O)ON=C1CSCCS1 | 4
56 | CN(C)CCSc1nc2ccccc2cc1-c1ccccc1 | 4
57 | CC(C)N1CCN(C(=O)c2ccc(OC(=O)C3CCCc4ccccc43)cc2)CC1 (stereo not drawn) | 5
58 | Cc1ccc(I)cc1Cc1ccc(-c2ccc(F)cc2)s1 | 5
59 | C[C@@H]1CN(c2c(F)c(N)c3c(=O)c(C(=O)O)cn(C4CC4)c3c2F)C[C@H](C)N1 (racemic) | 5
60 | CC1CC2(CC(C)OC2=O)C(=O)O1 (stereo not drawn) | 5
61 | CCOc1nc2cccc(C(=O)OC(C)OC(=O)OC3CCCCC3)c2n1Cc1ccc(-c2ccccc2-c2nnn[nH]2)cc1 (stereo not drawn) | 5
62 | Cc1ncc(CSSCc2cnc(C)c(O)c2CO)c(CO)c1O | 5
63 | CCCC(=O)OC[C@@H](OC(=O)CCC)[C@@H](OC(=O)CCC)[C@H](Cn1c2nc(=O)[nH]c(=O)c-2nc2cc(C)c(C)cc21)OC(=O)CCC | 5
64 | COC(=O)Nc1nc2cc(Sc3ccccc3)ccc2[nH]1 | 5
65 | CCCCOC(=O)C1C(C(=O)OCCCC)C2(Cl)C(Cl)=C(Cl)C1(Cl)C2(Cl)Cl (stereo not drawn) | 5
66 | CC(C)(Oc1ccc(Cl)cc1)C(=O)NC(=O)NCN1CCOCC1 | 5
67 | O=C(Nc1ccc(Cl)cc1)c1ccccc1 | 4
68 | CCOCCOC(=O)C(=O)Nc1nc(-c2ccccc2)cs1 | 5
69 | CCOC1(c2ccco2)CCN(CCc2ccccc2)CC1C (stereo not drawn) | 2

Row | Structure (SMILES) | GHS category
70 | Cn1c(=O)oc2cc(C(=O)c3ccccc3)ccc21 | 5
71 | COc1ccc(C2(c3ccc(OC)c(C)c3)NC(=O)NC2=O)cc1 (stereo not drawn) | 5
72 | Cc1cccc(C)c1N=C(O)c1cccnc1O | 5
73 | CC(=O)OCCOC(C)C | 4
74 | CO/N=C(\C(=O)N[C@@H]1C(=O)N2C(C(=O)O)=CCS[C@H]12)c1csc(N)n1 | 5
75 | COCCNC(=O)c1ccnc(C(=O)NCCOC)c1 | 5
76 | CCOP(=S)(Oc1cnc(C(C)(C)C)nc1)OC(C)C (stereo not drawn) | 1
77 | CN1CC(c2ccn(-c3ccccc3)n2)CC2c3cccc4[nH]cc(c34)CC21 (stereo not drawn) | 4
78 | Nc1c(I)c(C(=O)O)c(I)c(C(=O)O)c1I | 5
79 | CCn1cc(C(=O)O)c(=O)c2cc(F)c(N3CCNCC3)nc21 | 5
80 | Brc1ccc(CNC2=NCCS2)cc1 | 3
81 | CCC(Oc1ccc(C(C)(C)CC)cc1C(C)(C)CC)C(=O)O (stereo not drawn) | 5
82 | O=S(=O)(O)Cc1ccccc1 | 4
83 | O=C1c2ccc(Oc3ccc(Cl)cc3)cc2C(=O)N1Cc1cccnc1 | 5
84 | CC1(C)S[C@@H]2[C@H](NC(=O)[C@H](NC(=O)N3CCN(S(C)(=O)=O)C3=O)c3ccccc3)C(=O)N2[C@H]1C(=O)O | 5
85 | O=[N+]([O-])c1ccc2nc[nH]c2c1 | 4
86 | CC(=O)CC(=O)Nc1cc(Cl)c(NC(=O)CC(C)=O)cc1C | 5
87 | CCCC(C)C=O (stereo not drawn) | 5
88 | CC(C)(CO)C1OCC2(CO1)COC(C(C)(C)CO)OC2 (stereo not drawn) | 5
89 | CCCCC(CC)COC(=O)c1ccccc1O (stereo not drawn) | 5
90 | CCCCCCC(=O)OC1CCC2C3CCC4=CC(=O)CCC4(C)C3CCC12C (stereo not drawn) | 4
91 | CCCCCCCCCC(C)C(OC)OC (stereo not drawn) | 5
92 | CON=C(C(=O)N[C@@H]1C(=O)N2C(C(=O)OC(C)OC(C)=O)=C(COC(N)=O)CS[C@H]12)c1ccco1 (stereo partly drawn) | 5

Row | Structure (SMILES) | GHS category
93 | CCC(=O)/C=C/C=C(\C)CCC=C(C)C | 5
94 | CC1COCc2cc3c(cc21)C(C)(C)C(C)C3(C)C (stereo not drawn) | 5
95 | ICC1CCC(CI)CC1 (stereo not drawn) | 5
96 | CCOC(=O)C(=O)Nc1nc(-c2ccc(OC)cc2)cs1 | 5
97 | Cc1ccc(Nc2ccc(Nc3ccc(C)cc3S(=O)(=O)O)c3c2C(=O)c2c(O)ccc(O)c2C3=O)c(S(=O)(=O)O)c1 | 5
98 | CCCCCCCCCCCCCCCNCCCCCCCCCCCCCCC | 5
99 | CC1CCCO1 (stereo not drawn) | 4
100 | COc1cc2c(cc1OC)C(c1cccc(Cl)c1)=NN=C(C)C2 | 5
101 | CC(O)CO[C@@H]1[C@@H](O)[C@H]2O[C@H]3[C@H](OCC(C)O)[C@@H](O)[C@@H](O[C@H]4[C@H](O)[C@@H](OCC(C)O)[C@@H](O[C@H]5[C@H](O)[C@@H](O)[C@@H](O[C@H]6[C@H](O)[C@@H](OCC(C)O)[C@@H](O[C@H]7[C@H](O)[C@@H](O)[C@@H](O[C@@H]1[C@@H](CO)O2)O[C@@H]7CO)O[C@@H]6CO)O[C@@H]5CO)O[C@@H]4CO)O[C@@H]3CO (stereo partly drawn) | 5
102 | C=C[C@](C)(O)CC[C@@H]1[C@@]2(C)CCCC(C)(C)[C@@H]2CC[C@@]1(C)O | 5
103 | CCC(C)(CCC(C)C)C(=O)OCC1CO1 (stereo not drawn) | 5
104 | CCN(CC)c1ccc(N=Nc2ncc([N+](=O)[O-])s2)cc1 | 5
105 | OCC1CN2CCN1CC2 (stereo not drawn) | 5
106 | NC(=O)Oc1ccccc1C(=O)Oc1ccc([N+](=O)[O-])cc1 | 5
107 | CCCCCCCCCC | 5
108 | Cc1ncc(CSSSCc2cnc(C)c(O)c2CO)c(CO)c1O | 5
109 | CCOC(=O)c1cnn(C)c1S(=O)(=O)NC(=O)Nc1nc(OC)cc(OC)n1 | 5
110 | O=C1NC(c2ccccc2)=C2C(=O)NC(c3ccccc3)=C12 | 5
111 | CCCCOC(=O)CC(O)C(=O)OCCCC (stereo not drawn) | 5
112 | CNCc1ccc(CSCCN/C(=N/S(C)(=O)=O)NCC(O)c2ccc(O)cc2)o1 (stereo not drawn) | 5
113 | CC(C)(N=C=O)c1ccc(C(C)(C)N=C=O)cc1 | 5
